Measurements as given in patent publication US9649279B2, “Fortified micronutrient salt formulations” (Massachusetts Institute of Technology, priority 2013, dated 2017).
Entries after “also recorded” stand apart in the source; their conditions may differ. Values belong to the compound of their own block, whether it stands above or below them.

Experiments:
[1] = Vitamin C stability and recovery under cooking conditions; assay type: physicochemical
Experimental: Formulations were tested for factors that increase stability and leakage characteristics for particular nutrients.
Ascorbic acid can become oxidixed and hydrolyzed, resulting in reduced bioactivity. Compounds specifically identified as stabilizing ascorbic acid, trans-Ferulic Acid (FA), Caffeic Acid (CA), and p-Coumaric Acid (p-CA), can be used in the particles and matrix to stabilize vitamin C.
To increase the loading of the ascorbic acid in the formulations, large amounts of ascorbic acid need to be added in the initial formulation process. However, the use of large amount of ascorbic acid can lower the pH of the water during the formulation, and this low pH condition can also dissolve the polymer we use to make the microparticles. To avoid this low pH issue, sodium ascorbate, which has equivalent bioactivity as ascorbic acid, can be used. Over 60 wt % of sodium ascorbate (NaAA) can be recovered after 2 hrs heating at 100° C.

[2] = In vitro release of micronutrients from EPO microspheres; assay type: physicochemical; settings: for release in SGF / release in SGF after 0.5 hours: SGF at 37° C.; for release in water: water at room temperature and 100° C.
Description: Eight essential micronutrients, presented in Table 3, were encapsulated and their release studied in vitro.
In-house assays were developed for micronutrient detection and determination of encapsulation efficiency and release kinetics.

[3] = enteric coated, three month storage, 25° C./20% RH and 45° C./60% RH; cited from earlier work
[4] = Release of EPO-coated micronutrients in water then SGF (ELISA); assay type: physicochemical; settings: for release in SGF / release in water: 5% EPO coating; for release in SGF: SGF at 37° C., after one hour; for release in water: water at 25° C. and 100° C., one hour; for stability in the formulations by ELISA: not degraded or denatured
Experimental: To mimic food preparation then ingestion, the samples were submerged in 4 mL water (at 25° C. or 100° C.) for one hour and transferred to 4 mL simulated gastric fluid at 37° C. for two hours.

[5] = Vitamin D3 stability and recovery; assay type: physicochemical
Experimental: Vitamin D3 is not stable under heat. Alteration involves ring-closure that allows generation of pyro- and isopyro-isomers. […] However, it degraded in water at 100° C. after 2 hours. The recovery of vitamin D3 in water at 100° C. is concentration-dependent. When the starting amount of vitamin D3 increased, the recovery after 2 hours cooking also went up, from 2% (15 μg), to 12% (60 μg), to 40% (240 μg), and to 60% (1 mg). The encapsulation of vitamin D3 in EPO matrix helped to stabilize the vitamin D3. The characteristic absorbance peak of vitamin D3 was preserved in D3-EPO after 100° C. in water for 2 hours. […] With HPLC, the recovery of D3 in D3-EPO was quantified to be around 47%.

[6] = Autoclaving of vitamin B12 in EPO-HA microspheres; assay type: physicochemical; settings: 16 psig and 250° F. for 30 minutes
Experimental: Vitamin B12 was encapsulated in the EPO-HA microspheres and subjected to autoclaving. The autoclaving conditions were 16 psig and 250° F. for 30 minutes. […] Thus, the formulations can survive and prevent the leakage of MNs under autoclaving conditions.

- release in SGF ([2]; EPO-MS): Complete release
- release in water ([2]; EPO-MS): limited release
Compound: CCCCCCCCCCCCCCCC(=O)OC/C=C(C)/C=C/C=C(C)/C=C/C1=C(C)CCCC1(C)C [Vitamin A, Retinyl Palimitate]
- losses of the micronutrient after storage [3]: 50-99%

- release in SGF after 0.5 hours ([2]; EPO-MS): Complete release
- release in water after two hours ([2]; EPO-MS, room temperature and 100° C. boiling water, two hours): Limited release
- release during cooking at 100° C. ([1]; increased concentration of the polymer coating): significantly reduced
Compound: O=C1O[C@H]([C@@H](O)CO)C(O)=C1O [Vitamin C, Ascorbic acid]

- stability in the formulations by ELISA [4]: stable
- effect of 1% oil during boiling on release ([2]; boiling, two hours, 1% oil added): did not increase release
- leakage under autoclaving [6]: No severe leakage
Compound: Vitamin B12
- release in SGF [4]: released all; also recorded: near complete release
- release in water [4]: no release; also recorded: negligible release

Second part, the compound before the results:

Compound: O=C1O[C@H]([C@@H](O)CO)C([O-])=C1O.[Na+] [NaAA, sodium ascorbate]
- recovered after heating ([1]; 2 hrs heating at 100° C.): Over 60 wt %

Compound: Nc1nc2ncc(CNc3ccc(C(=O)N[C@@H](CCC(=O)O)C(=O)O)cc3)nc2c(=O)[nH]1 [Vitamin B9, folic acid]
- release in SGF [4]: near complete release
- release in SGF ([4]; listed as B9): released all
- release in water [4]: negligible release
- release in water ([4]; listed as B9): no release
- stability in the formulations by ELISA [4]: stable
- release in SGF after 0.5 hours ([2]; EPO-gelatin-microspheres): Complete release
- release in 100° C. boiling water ([2]; EPO-gelatin-microspheres, two hours): Slight leakage
- release at room temperature ([2]; EPO-gelatin-microspheres, water, room temperature, two hours): Limited release

Compound: C=C1CC[C@H](O)C/C1=C/C=C1\CCC[C@]2(C)[C@@H]([C@H](C)CCCC(C)C)CC[C@@H]12 [Vitamin D3, cholecalciferol]
- release in SGF ([2]; EPO-MS): Fast and complete release
- release in water ([2]; EPO-MS): slow and limited release
- characteristic absorbance peak (UV spectrum) after heating ([5]; 100° C. in water for 2 hours): totally degraded
- stability in acidic condition ([5]; SGF (pH=1.2) at 37° C.): stable
- stability in water at 100° C. ([5]; water, 100° C., after 2 hours): degraded
- stability in water at room temperature ([5]; water, room temperature): stable
